In this assay the target is T1, recombinant E. coli LpxA (Escherichia coli, UniProt P0A722).
T1 construct: 6xHis (C); made in house; host or cells: E. coli BL21 (pET23b)
The assay is described as follows: LpxA assay: acyl-UDP-GlcNAc formation from UDP-[3H]GlcNAc, TLC. It is filed as biochemical. The following applies: 5 mM compound; FIG. 8. The text has this: The lpxA gene was amplified from an E. coli genomic library and inserted into a pET23b vector using standard recombinant DNA methodology. The 5′ oligonucleotide for amplification of the LpxA open reading frame was 5′-[…]-3′ (SEQ ID NO. 1) and contains a BamHI restriction enzyme site upstream of the LpxA ATG start codon and the 3′ oligonucleotide was 5′-[…]-3′ (SEQ ID NO. 2) and contains a XhoI restriction enzyme site downstream of the final codon of the LpxA open reading frame. Primers were custom synthesized. The primers were designed such that digestion of the amplification product would result in addition of a C-terminal 6×-His tag in frame with the LpxA open reading frame. Specifically, E. coli genomic DNA was isolated and an amplification reaction was carried out as follows: 33 μl water, 5 μl 10× reaction buffer, 1.5 μl of 50 mM magnesium sulfate, 3 μl of 10 mM dNTPs, 3 μl of a 50 μM solution of the 5′ LpxA primer, 3 μl of a 50 μM solution of the 3′ LpxA primer, 0.5 μl of E. coli genomic DNA solution, and 1 μl of polymerase. The reaction conditions were as follows: 94° C. for 2 minutes; followed by 30 cycles of 94° C. for 30 seconds, 50° C. for 30 seconds, 68° C. for 1.5 minutes, followed by an extension at 68° C. for 7 minutes. The resulting LpxA product was separated from other DNA on a 0.8% agarose gel and isolated from the gel. The LpxA open reading frame was cloned into a topoisomerase I-activated vector and transformed into E. coli. […] The newly synthesized plasmid containing the BamHI- and XhoI-flanked LpxA open reading frame and plasmid pET23a were digested with BamHI and XhoI at 37° C. for 2 hours, DNA was separated by agarose gel electrophoresis, isolated from the gel, and ligated. Ligation reactions were transformed into chemically competent E. coli and plasmid DNA was isolated. Restriction mapping was performed to determine which plasmids contained the LpxA open reading frame. To remove the T7 epitope coding sequence from the 5′end of the LpxA open reading frame, the pET23a plasmid containing the LpxA open reading frame was digested with the restriction enzymes BamHI and XhoI and a pET23b plasmid was digested with BglII and XhoI, DNA was separated by agarose gel electrophoresis, isolated from the gel, and ligated. Ligation reactions were transformed into chemically competent E. coli and plasmid DNA was isolated. Restriction mapping was performed to assess plasmids containing the LpxA open reading frame.
A 5 ml culture of E. Coli BL21 cells expressing the LpxA-6×His plasmid was grown overnight at 37° C. in LB medium containing 50 μg/ml ampicillin and 34 μg/ml chloramphenicol, then subcultured into 500 ml of the same medium and grown at 37° C. until A600=0.6. LpxA expression was induced by addition of 0.5 mM IPTG for three hours. The cells were centrifuged at 7 000×g for 10 minutes at 4° C. and lysed using a mild, nonionic detergent. The soluble fraction containing LpxA was added to 1 ml of nickel affinity resin in a 15 ml Falcon tube; the resin was washed extensively with extraction/wash buffer (50 mM Na-phosphate (pH 7.0) and 300 mM NaCl) prior to use. This mixture was incubated on a rotating platform at low speed for 20 minutes at room temperature. The resin was centrifuged at 1000 rpm in a bench top centrifuge for 2 min, washed twice (10 min each) with 10 ml of extraction/wash buffer, resuspended in 10 ml of extraction/wash buffer, and transferred to a 10 ml polypropylene disposable protein purification column. The column was eluted with 5 ml of 50 mM Na-phosphate (pH 7.0) containing 300 mM NaCl and 150 mM imidazole, collected in 1 ml fractions. The eluate was analysed by SDS-PAGE and was visualised using a protein stain (FIG. 7 inset).
Recombinant Vibrio harveyi acyl carrier protein was prepared from a GST fusion protein as described previously (Flaman et al., 2001). […]

Among the data in patent US8835476B2, “Synthesis of novel antimicrobials” (priority 2005, dated 2014) are inhibition values, retold here.

T1 sequence (P0A722 whole entry): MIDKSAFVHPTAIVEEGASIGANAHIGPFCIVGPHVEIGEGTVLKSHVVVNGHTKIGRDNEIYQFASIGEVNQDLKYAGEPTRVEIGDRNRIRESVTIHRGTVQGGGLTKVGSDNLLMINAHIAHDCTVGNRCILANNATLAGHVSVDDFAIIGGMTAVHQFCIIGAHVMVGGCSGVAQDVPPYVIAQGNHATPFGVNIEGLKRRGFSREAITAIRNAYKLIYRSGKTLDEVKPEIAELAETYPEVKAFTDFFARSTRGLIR

On to `O=C(O)c1cc(-c2nnn[nH]2)c(-c2cccc3ccccc23)s1` [DNM-121H, 5-(Naphthalen-1-yl)-4-(1H-tetrazol-5-yl)thiophene-2-carboxylic acid], for which the inhibition at 5000 µM was above 70%.
The value for `COc1cccc(-c2sc(C(=O)O)cc2-c2nnnn2C)c1` [DNM-122D, 5-(3-Methoxyphenyl)-4-(1-methyl-1H-tetrazol-5-yl)thiophene-2-carboxylic acid] was above 70%; that for `Cn1nnnc1-c1cc(C(=O)O)sc1-c1ccc(-c2ccccc2)cc1` [DNM-122G, 5-(4-biphenylyl)-4-(1-methyl-1H-tetrazol-5-yl)thiophene-2-carboxylic acid] was above 80%.
The same measure for `Cn1nnnc1-c1cc(C(=O)O)sc1-c1cccc2ccccc12` [DNM-122H, 5-(Naphthalen-1-yl)-4-(1-methyl-1H-tetrazol-5-yl)thiophene-2-carboxylic acid]: above 80%; for `Cn1nnc(-c2cc(C(=O)O)sc2-c2cccc(F)c2)n1` [DNM-123A, 5-(3-Fluorophenyl)-4-(2-methyl-2H-tetrazol-5-yl)thiophene-2-carboxylic acid]: above 70%.
The value for `COc1cccc(-c2sc(C(=O)O)cc2-c2nnn(C)n2)c1` [DNM-123D, 5-(3-Methoxyphenyl)-4-(2-methyl-2H-tetrazol-5-yl)thiophene-2-carboxylic acid] was above 80%; that for `COc1ccc(-c2sc(C(=O)O)cc2-c2nnn(C)n2)cc1` [DNM-123E, 5-(4-Methoxyphenyl)-4-(2-methyl-2H-tetrazol-5-yl)thiophene-2-carboxylic acid] was above 70%.
On to `COc1ccccc1-c1sc(C(=O)O)cc1-c1nnn(C)n1` [DNM-123F, 5-(2-Methoxyphenyl)-4-(2-Methyl-2H-tetrazol-5-yl)thiophene-2-carboxylic acid], for which the inhibition at 5000 µM was above 80%.
Regarding `Cn1nnc(-c2cc(C(=O)O)sc2-c2ccc(-c3ccccc3)cc2)n1` [DNM-123G, 5-(4-biphenylyl)-4-(2-methyl-2H-tetrazol-5-yl)thiophene-2-carboxylic acid], the inhibition at 5000 µM was above 80%.
As for `Cn1nnc(-c2cc(C(=O)O)sc2-c2cccc3ccccc23)n1` [DNM-123H, 5-(Naphthalen-1-yl)-4-(2-methyl-2H-tetrazol-5-yl)thiophene-2-carboxylic acid], the inhibition at 5000 µM was above 80%.
The same measure for `Cn1nnc(-c2cc(C(=O)O)sc2-c2ccccn2)n1` [DNM-123I, 5-(Pyridin-2-yl)-4-(2-methyl-2H-tetrazol-5-yl)thiophene-2-carboxylic acid]: above 70%; for `CCOC(=O)c1cc(-c2nnn[nH]2)c(-c2cccc(F)c2)s1` [DNM-124A, Ethyl 5-(3-fluorophenyl)-4-(1H-tetrazol-5-yl)thiophene-2-carboxylate]: above 80%; for `CCOC(=O)c1cc(-c2nnn[nH]2)c(-c2ccccn2)s1` [DNM-124I, Ethyl 5-(pyridin-2-yl)-4-(1H-tetrazol-5-yl)thiophene-2-carboxylate]: above 80%.
The value for `Oc1cccc(-c2cc(-c3nnn[nH]3)c(-c3cccc(O)c3)s2)c1` [DNM-131A, 5-(2,5-Bis(3-hydroxyphenyl)thiophen-3-yl)-1H-tetrazole] was above 80%; that for `Oc1ccc(-c2cc(-c3nnn[nH]3)c(-c3ccc(O)cc3)s2)cc1` [DNM-131C, 5-(2,5-Bis(4-hydroxyphenyl)thiophen-3-yl)-1H-tetrazole] was above 80%.
The value for `O=C(O)c1ccc(-c2cc(-c3nnn[nH]3)c(-c3ccc(C(=O)O)cc3)s2)cc1` [DNM-131E, 5-(2,5-Bis(4-carboxyphenyl)thiophen-3-yl)-1H-tetrazole] was above 80%; that for `NC(=O)c1ccc(-c2cc(-c3nnn[nH]3)c(-c3ccc(C(N)=O)cc3)s2)cc1` [DNM-131F, 5-(2,5-Bis(4-carbamoylphenyl)thiophen-3-yl)-1H-tetrazole] was above 80%.
Regarding `NC(=O)c1cccc(-c2cc(-c3nnn[nH]3)c(-c3cccc(C(N)=O)c3)s2)c1` [DNM-131H, 5-(2,5-Bis(3-carbamoylphenyl)thiophen-3-yl)-1H-tetrazole], the inhibition at 5000 µM is above 70%.
`CCOC(=O)c1ccc(-c2cc(-c3nnn[nH]3)c(-c3ccc(C(=O)OCC)cc3)s2)cc1` [DNM-131J, 5-(2,5-Bis(4-(ethoxylcarbonyl)phenyl)thiophen-3-yl)-1H-tetrazole]: the inhibition at 5000 µM was above 80%.
The same measure for `COC(=O)c1ccccc1-c1cc(-c2nnn[nH]2)c(-c2ccccc2C(=O)OC)s1` [DNM-131K, 5-(2,5-Bis(2-(methoxylcarbonyl)phenyl)thiophen-3-yl)-1H-tetrazole]: above 70%; for `c1ccc(Cc2cc(-c3nnn[nH]3)c(Cc3ccccc3)s2)cc1` [DNM-131O, 5-(2,5-Dibenzylthiophen-3-yl)-1H-tetrazole]: above 80%; for `Cn1nnc(-c2cc(-c3cccc(O)c3)sc2-c2cccc(O)c2)n1` [DNM-132A, 5-(2,5-Bis(3-hydroxyphenyl)thiophen-3-yl)-2-methyl-2H-tetrazole]: above 80%.
Regarding `Cn1nnc(-c2cc(-c3ccc(O)cc3)sc2-c2ccc(O)cc2)n1` [DNM-132C, 5-(2,5-Bis(4-hydroxyphenyl)thiophen-3-yl)-2-methyl-2H-tetrazole], the inhibition at 5000 µM is above 80%.
The value for `Cn1nnc(-c2cc(-c3cccc(C(=O)O)c3)sc2-c2cccc(C(=O)O)c2)n1` [DNM-132G, 5-(2,5-Bis(3-carboxyphenyl)thiophen-3-yl)-2-methyl-2H-tetrazole] was above 80%.
The same measure for `Cn1nnnc1-c1cc(-c2cccc(O)c2)sc1-c1cccc(O)c1` [DNM-133A, 5-(2,5-Bis(3-hydroxyphenyl)thiophen-3-yl)-1-methyl-1H-tetrazole]: above 80%; for `Cn1nnnc1-c1cc(-c2ccc(O)cc2)sc1-c1ccc(O)cc1` [DNM-133C, 5-(2,5-Bis(4-hydroxyphenyl)thiophen-3-yl)-1-methyl-1H-tetrazole]: above 80%.
The value for `Cn1nnnc1-c1cc(-c2ccc(C(=O)O)cc2)sc1-c1ccc(C(=O)O)cc1` [DNM-133E, 5-(2,5-Bis(4-carboxyphenyl)thiophen-3-yl)-1-methyl-1H-tetrazole] was above 70%.
